Measured values: patent publication US7323447B2, “Hepatitis C virus inhibitors” (Bristol-Myers Squibb Company, priority 2005, dated 2008)
pIC50: −log10 of the molar value.

What was measured:
[1] = molecular target: T1, HCV NS3/4A protease complex (BMS strain) (UniProt P27958); test: FRET peptide assay to monitor HCV NS3/4A proteolytic activity, BMS strain; format: biochemical, Hepatitis C virus (genotype 1a); details: read-out: IC50 Range; HCV NS3/4A enzyme assay; Table 1
T1 construct: other: HCV NS3/4A enzyme assay; said of H77 and J4L6S; fused on or other part: Three-lysine solubilising tail at the NS4A C-terminus and a His tag from pET21b (Ni-NTA purification), for the H77 and J4L6S constructs
Procedure, shortened: (§1)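 Recombinant NS3/4A (BMS strain, genotype 1a, >90% pure) cleaving FRET depsipeptide RET S1 (EDANS/DABCYL) at 2 μM; enzyme 2-3 nM (300 pM with 50 μg/ml BSA for sensitive runs). Buffer 50 mM HEPES pH 7.5, 0.15 M NaCl, 0.1% Triton, 15% glycerol, 10 mM βME; fluorescence followed in real time.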

[2] = molecular target: T2, HCV NS3/4A protease complex (BMS strain) (UniProt P27958, species not given/STRAIN_BMS); test: as above; format: biochemical, Hepatitis C virus (genotype 1a); details: read-out: IC50 against the NS3/4A BMS strain in the enzyme assay; BMS strain
T2 construct: other: BMS strain; said of H77 and J4L6S; These are given only for the H77 and J4L6S constructs
Procedure, shortened: as §1

T2 sequence (P27958 1027-1657, stated change not applied, one chain of several): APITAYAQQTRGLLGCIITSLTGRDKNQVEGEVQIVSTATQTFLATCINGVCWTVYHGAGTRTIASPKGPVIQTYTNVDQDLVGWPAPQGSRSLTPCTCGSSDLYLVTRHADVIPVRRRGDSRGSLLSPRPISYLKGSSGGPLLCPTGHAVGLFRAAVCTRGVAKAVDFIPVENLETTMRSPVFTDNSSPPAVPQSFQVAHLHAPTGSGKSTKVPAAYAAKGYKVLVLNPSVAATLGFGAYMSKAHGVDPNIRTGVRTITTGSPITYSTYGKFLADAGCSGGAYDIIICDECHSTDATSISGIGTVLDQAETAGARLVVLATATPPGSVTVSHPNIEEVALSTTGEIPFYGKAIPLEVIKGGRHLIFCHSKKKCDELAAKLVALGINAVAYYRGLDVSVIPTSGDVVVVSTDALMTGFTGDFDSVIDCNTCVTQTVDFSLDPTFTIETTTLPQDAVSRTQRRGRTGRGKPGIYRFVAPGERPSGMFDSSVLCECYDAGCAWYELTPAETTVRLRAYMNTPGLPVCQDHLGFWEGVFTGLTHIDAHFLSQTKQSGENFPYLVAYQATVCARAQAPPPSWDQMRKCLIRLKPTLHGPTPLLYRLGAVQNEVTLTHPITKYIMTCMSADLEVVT
T1 sequence (P27958 1027-1657, one chain of several): as the sequence (P27958 1027-1657, stated change not applied, one chain of several) above

## C=C[C@@H]1C[C@]1(NC(=O)[C@@H]1C[C@@H](OC(=O)N2Cc3cccc(F)c3C2)CN1C(=O)[C@@H](OC(=O)NC(C)(C)C)C(C)(C)C)C(=O)NS(=O)(=O)C1CC1 [Example 56Compound 56]
[1]
  pIC50: > 7.00
[2]
  pIC50: 7.00
